ChEMBL document CHEMBL3603760, “Potential therapeutic agents for circulatory diseases from Bauhinia glauca Benth.subsp. pernervosa. (Da Ye Guan Men)” (Bioorg Med Chem Lett, 2015)
The source made the active and inactive calls. The calls are words filed in the database; no cut-off is given here.

Tests used:
Assay type in all cases: functional
Platelet [1] = test: (§1) Anti-platelet activity in rat platelet rich plasma assessed as inhibition of ADP and calcium-induced platelet aggregation at 100 uM pre-incubated at 37 degC for 10 mins and measured 30 mins after ADP and calcium addition
[2] = as §1
[3] = Anti-platelet activity in rat platelet rich plasma assessed as inhibition of ADP and calcium-induced platelet aggregation incubated at 37 degC for 10 mins and measured 30 mins after ADP and calcium addition
Platelet [4] = test: Potency index, ratio of anti-platelet activity for aspirin to test compound in rat platelet rich plasma
[5] = Anti-platelet activity in rat platelet rich plasma assessed as inhibition of ADP and calcium-induced platelet aggregation at 1650 uM incubated at 37 degC for 10 mins and measured 30 mins after ADP and calcium addition

Structure (SMILES)	inhibition (Platelet [1])	inhibition at 100 µM [2]	other results
COc1c(-c2ccc(O)c(O)c2)oc2cc(O)cc(O)c2c1=O	inactive		
COc1cc(C(=O)O)cc(OC)c1O	inactive		
C[C@@H]1O[C@@H](Oc2c(-c3ccc(O)c(O)c3)oc3cc(O)cc(O)c3c2=O)[C@H](O)[C@H](O)[C@H]1O [QUERCITRIN]		2.13%	
COC(=O)c1cc(O)c(O)c(O)c1 [GALLIC ACID METHYL ESTER]		16.2%	
O=c1c(O[C@@H]2O[C@H](CO)[C@@H](O)[C@H](O)[C@H]2O)c(-c2ccc(O)c(O)c2)oc2cc(O)cc(O)c12 [ISOQUERCETIN]		36.2%	
C[C@H]1O[C@@H](Oc2c(-c3cc(O)c(O)c(O)c3)oc3cc(O)cc(O)c3c2=O)[C@@H](O)[C@@H](O)[C@@H]1O	inactive		
O=c1cc(-c2ccc(O)c(O)c2)oc2cc(O)cc(O)c12 [LUTEOLIN]		26.6%	
COc1c(O)cc(C=O)cc1O		20.8%	
COc1c(-c2ccc(O)c(O)c2)oc2cc(O)ccc2c1=O	inactive		
Cc1c(O)cc2oc(-c3ccc(O)cc3)c(O)c(=O)c2c1O		26%	
COc1cc(-c2cc(=O)c3c(O)cc(O)cc3o2)ccc1O [CHRYSOERIOL]		92.3%	IC50 [3]: 27.1 µM; Ratio (Platelet [4]): 2
O=c1cc(-c2ccc(O)c(O)c2)oc2cc(O)ccc12		13.7%	
CC(=O)Oc1ccccc1C(=O)O [ASPIRIN]			inhibition at 1650 µM [5]: 41.5%
COc1cc(-c2oc3cc(O)cc(O)c3c(=O)c2O)ccc1O	inactive		
COc1ccc(C(=O)O)cc1O	inactive		
Oc1cc(O)c2c(c1)O[C@H](c1ccc(O)c(O)c1)[C@@H](O)C2 [CIANIDANOL]		35.1%	
O=C(O)c1cc(O)c(O)c(O)c1	inactive		
COc1cc(O[C@@H]2O[C@H](COC(=O)c3cc(O)c(O)c(O)c3)[C@@H](O)[C@H](O)[C@H]2O)cc(O)c1OC	inactive		
O=c1c(O[C@@H]2OC[C@H](O)[C@H](O)[C@H]2O)c(-c2ccc(O)c(O)c2)oc2cc(O)cc(O)c12 [GUAJAVERIN]		7.29%	
O=c1c(O)c(-c2ccc(O)cc2)oc2cc(O)cc(O)c12	inactive		
O=C(O)/C=C/c1ccccc1 [CINNAMIC ACID]		8.69%	
Cc1c(O)c(C)c2c(c1O)C(=O)C[C@@H](c1ccc(O)cc1)O2	inactive		
O=c1ccoc2cc(O)cc(O)c12		6.83%	
COc1cc(O[C@@H]2O[C@H](COC(=O)c3cc(O)c(O)c(O)c3)[C@@H](O)[C@H](O)[C@H]2O)ccc1O		22.1%	
O=c1c(O[C@@H]2O[C@H](CO)[C@H](O)[C@H](O)[C@H]2O)c(-c2ccc(O)c(O)c2)oc2cc(O)cc(O)c12 [HYPEROSIDE]		35.2%	
O=C1C[C@@H](c2ccc(O)c(O)c2)Oc2cc(O)cc(O)c21 [ERIODICTYOL]		24.5%	
COc1c(C)c(O)c2c(=O)c(O)c(-c3ccc(O)cc3)oc2c1C	inactive		
O=C(O)c1ccc(O)c(O)c1	inactive		
C[C@@H]1O[C@@H](Oc2cc(O)c3c(=O)cc(-c4cc(O)c(O)c(O)c4)oc3c2)[C@H](O)[C@H](O)[C@H]1O		41.3%	
O=c1c(O)c(-c2ccc(O)c(O)c2)oc2cc(O)cc(O)c12 [QUERCETIN]		16.8%	
